Data: the supplement of paper PMC10307832

Legend:
Test in all cases: relative viability (nuclei count vs DMSO), 5 days (fraction); higher = more cells survive
[1] = compound: C1CNCCC1C2=CC(=NN2)C3=CC=NC=C3 + CC(C)C[C@H](NC(=O)[C@H](Cc1ccccc1)NC(=O)c1cnccn1)B(O)O [Bortezomib] (partner 0.002 µM)
Method in brief: (§1)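 Medians of duplicate plates are given as relative viability. That measure is the nuclei count in treated wells divided by the count in vehicle wells. Counts were taken on 4× images of lung cancer cell lines in 1536-well plates, 5 days after pin-tool dosing the day after seeding with one drug alone or a fixed anchor-drug dose plus five library-drug doses (not always all listed) in √10 steps.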

[2] = compound: C1CNCCC1C2=CC(=NN2)C3=CC=NC=C3 + Cc1cc(Nc2cc(N3CCN(C)CC3)nc(Sc3ccc(NC(=O)C4CC4)cc3)n2)n[nH]1 [Tozasertib] (partner 0.1 µM)
Method in brief: as §1

[3] = compound: C[C@@H](N)c1ccc(C(=O)Nc2ccnc3[nH]ccc23)cc1 + N=C(N)NC(=N)NCCc1ccccc1 [Phenformin] (partner 250 µM)
Method in brief: as §1

[4] = compound: C[C@@H](N)c1ccc(C(=O)Nc2ccnc3[nH]ccc23)cc1 + Nc1ncn([C@H]2C[C@H](O)[C@@H](CO)O2)c(=O)n1 [Decitabine] (partner 2 µM)
Method in brief: as §1

Cell Line | relative viability ([1]; first compound 0.08 µM) | relative viability ([1]; first compound 0.8 µM) | relative viability ([1]; first compound 2.53 µM) | relative viability ([1]; first compound 8 µM) | relative viability ([2]; first compound 0.08 µM) | relative viability ([2]; first compound 0.8 µM) | relative viability ([2]; first compound 2.53 µM) | relative viability ([2]; first compound 8 µM) | relative viability ([3]; first compound 0.04 µM) | relative viability ([3]; first compound 0.1265 µM) | relative viability ([3]; first compound 0.4 µM) | relative viability ([3]; first compound 4 µM) | relative viability ([4]; first compound 0.04 µM) | relative viability ([4]; first compound 0.1265 µM) | relative viability ([4]; first compound 0.4 µM) | relative viability ([4]; first compound 4 µM) | relative viability ([4]; first compound 1.265 µM) | relative viability ([3]; first compound 1.265 µM)
NCI-H23 | 0.729 | 0.866 | 1.1 | 1.24 | 0.35 | 0.422 | 0.411 | 0.36 | 0.744 | 0.798 | 0.85 | 0.732 | 0.296 | 0.295 | 0.363 | 0.301 |  | 
NCI-H322M | 1.27 | 1.19 | 1.39 | 1.29 | 0.461 | 0.462 | 0.523 | 0.503 | 0.874 | 0.886 | 0.871 | 0.72 | 0.744 | 0.833 | 0.906 | 0.876 | 0.809 | 
NCI-H441 |  | 0.764 | 0.609 | 0.269 | 0.532 | 0.613 | 0.727 | 0.73 | 0.879 | 0.995 | 0.879 | 0.74 | 0.276 | 0.279 | 0.225 | 0.238 | 0.258 | 
NCI-H460 | 0.892 | 1.49 | 1.06 | 1.12 | 0.474 | 0.381 | 0.617 | 0.449 | 0.509 | 0.522 | 0.558 | 0.495 | 0.525 | 0.485 | 0.581 | 0.451 | 0.575 | 0.535
NCI-H520 | 0.365 | 0.558 | 0.559 | 0.573 | 0.395 | 0.378 | 0.457 | 0.457 | 0.635 | 0.603 | 0.702 | 0.656 | 0.579 | 0.552 | 0.61 | 0.569 | 0.617 | 0.404
NCI-H596 | 1 | 1.06 | 1.12 | 1.16 | 0.874 | 1.04 | 0.814 | 1.01 | 0.781 | 0.668 | 0.804 | 0.713 | 1.02 | 1.11 | 1.09 | 1.13 | 1.19 | 
NCI-H647 | 0.935 | 0.796 | 1.07 | 0.86 | 0.263 | 0.413 | 0.297 | 0.263 | 0.443 | 0.488 | 0.516 | 0.51 | 0.314 | 0.324 | 0.419 | 0.335 | 0.521 | 0.476
NCI-H650 | 0.803 | 0.689 | 0.949 | 0.734 | 0.738 | 0.729 | 0.799 | 0.793 |  | 0.424 | 0.46 | 0.411 |  | 0.3 | 0.369 | 0.3 |  | 0.203
NCI-H661 | 0.916 | 0.825 | 0.801 | 1.01 | 0.38 | 0.367 | 0.356 | 0.345 | 0.222 | 0.274 | 0.247 | 0.244 | 0.51 | 0.59 | 0.573 | 0.504 | 0.493 | 0.224
NCI-H727 | 0.842 | 0.829 | 1.14 | 0.911 | 0.613 | 0.51 | 0.87 | 0.545 | 0.583 | 0.653 | 0.669 | 0.756 | 1 | 1.03 | 0.942 | 0.908 | 0.764 | 0.748
NCI-H838 | 0.823 | 0.939 | 0.739 | 0.73 | 0.314 | 0.292 | 0.28 | 0.284 | 0.378 | 0.527 | 0.501 | 0.221 | 0.482 | 0.47 | 0.466 | 0.3 | 0.415 | 0.247
NCI-H1355 | 1.23 | 1.22 | 1.27 | 1.26 | 0.556 | 0.595 | 0.57 | 0.622 | 0.393 | 0.469 | 0.498 | 0.388 | 0.343 | 0.332 | 0.317 | 0.322 | 0.306 | 0.436
NCI-H1437 | 0.495 | 0.607 | 0.552 | 0.462 | 0.412 | 0.415 | 0.417 | 0.421 | 0.335 | 0.346 | 0.35 | 0.336 | 0.526 | 0.572 | 0.541 | 0.591 | 0.602 | 0.324
NCI-H1650 | 0.212 | 0.184 | 0.214 | 0.204 | 0.393 | 0.446 | 0.433 | 0.392 | 0.434 | 0.463 | 0.345 | 0.421 | 0.379 | 0.542 | 0.51 | 0.447 | 0.431 | 0.331
NCI-H1651 | 0.907 | 0.923 | 1.02 | 0.949 | 0.598 | 0.685 | 0.767 | 0.735 | 0.426 | 0.315 | 0.312 | 0.301 | 0.648 | 0.619 | 0.668 | 0.656 | 0.661 | 0.372
NCI-H1666 | 0.865 | 0.724 | 0.959 | 0.962 | 0.59 | 0.7 | 0.693 | 0.755 | 0.534 | 0.603 | 0.651 | 0.561 | 0.83 | 0.768 | 0.865 | 0.855 | 0.781 | 0.631
NCI-H1734 | 0.97 | 1.04 | 1.21 | 1.03 | 0.27 | 0.279 | 0.269 | 0.271 | 0.355 | 0.383 | 0.431 | 0.397 | 0.477 | 0.506 | 0.53 | 0.462 | 0.52 | 0.282
NCI-H1755 | 0.991 | 0.943 | 1.04 | 0.932 | 0.583 |  | 0.643 | 0.526 | 0.504 | 0.687 | 0.657 | 0.426 | 0.728 | 0.728 | 0.712 | 0.684 | 0.76 | 0.525
NCI-H1915 | 1 | 0.977 | 0.932 | 0.934 | 0.475 | 0.435 | 0.451 | 0.438 | 0.289 | 0.37 | 0.38 | 0.319 |  | 0.265 | 0.242 | 0.235 |  | 
NCI-H1975 | 0.396 | 0.423 | 0.479 | 0.369 | 0.885 | 0.759 | 0.725 | 0.724 | 0.359 | 0.405 | 0.39 | 0.255 | 0.365 | 0.381 | 0.426 | 0.28 | 0.356 | 0.347
NCI-H1993 | 1.02 | 0.999 | 1.21 | 1.34 | 0.586 | 0.618 | 0.564 | 0.653 | 0.597 | 0.501 | 0.528 | 0.547 | 0.649 | 0.603 |  | 0.69 | 0.636 | 0.502
NCI-H2009 | 1.04 | 0.989 | 1.09 | 0.99 | 0.713 | 0.74 | 0.689 | 0.696 | 0.473 | 0.531 | 0.468 | 0.435 | 0.318 | 0.391 | 0.355 | 0.351 | 0.346 | 0.443
NCI-H2023 | 0.793 | 0.958 | 1.24 | 0.983 | 0.351 | 0.3 | 0.482 | 0.256 | 0.451 | 0.482 | 0.512 | 0.411 | 0.252 | 0.243 | 0.245 | 0.159 | 0.222 | 0.457
NCI-H2085 | 0.975 | 0.736 | 1.11 | 1.03 | 0.934 |  | 0.847 | 0.832 | 0.628 | 0.77 | 0.778 | 0.636 | 0.528 | 0.573 | 0.742 | 0.521 | 0.561 | 0.359
NCI-H2087 | 0.866 | 1.01 | 0.728 | 0.763 | 0.267 | 0.231 | 0.226 | 0.202 | 0.497 | 0.571 | 0.554 | 0.557 | 0.293 | 0.325 | 0.357 | 0.31 | 0.362 | 
NCI-H2126 | 1.1 | 1.12 | 1.16 | 1.12 | 0.674 | 0.974 | 0.916 | 0.858 | 0.588 | 0.558 | 0.592 | 0.502 | 0.56 | 0.583 | 0.596 | 0.572 | 0.599 | 0.505
NCI-H2347 | 0.937 | 0.951 | 1.05 | 0.969 | 0.766 | 0.599 | 0.557 | 0.571 | 0.502 | 0.532 | 0.546 | 0.584 | 0.657 | 0.594 | 0.623 | 0.54 | 0.566 | 
NCI-H2405 | 0.94 | 0.658 | 1.02 | 1 | 0.749 | 0.751 | 0.692 | 0.525 | 0.176 | 0.449 | 0.369 | 0.218 |  | 0.801 | 0.695 | 0.248 | 0.448 | 0.264
NCI-H3122 | 0.989 | 1.04 | 1.04 | 0.965 | 0.366 | 0.416 | 0.408 | 0.417 | 0.352 | 0.413 | 0.39 | 0.377 | 0.46 | 0.454 | 0.419 | 0.458 | 0.458 | 
PC-3 [JPC-3] | 0.845 | 0.814 | 0.811 | 0.793 | 0.832 | 0.914 | 0.889 | 0.853 | 0.473 | 0.495 | 0.477 | 0.456 | 0.776 | 0.807 | 0.857 | 0.625 | 0.824 | 0.474
